According to ChEMBL document CHEMBL2412971, “Selective orexin receptor antagonists” (Bioorg Med Chem Lett, 2013):

Legend:
[1] = target: T1, Orexin/Hypocretin receptor type 1 (Homo sapiens, UniProt O43613); experiment: (§1) Binding affinity to orexin receptor 1 (unknown origin)
T1 sequence (O43613 whole entry): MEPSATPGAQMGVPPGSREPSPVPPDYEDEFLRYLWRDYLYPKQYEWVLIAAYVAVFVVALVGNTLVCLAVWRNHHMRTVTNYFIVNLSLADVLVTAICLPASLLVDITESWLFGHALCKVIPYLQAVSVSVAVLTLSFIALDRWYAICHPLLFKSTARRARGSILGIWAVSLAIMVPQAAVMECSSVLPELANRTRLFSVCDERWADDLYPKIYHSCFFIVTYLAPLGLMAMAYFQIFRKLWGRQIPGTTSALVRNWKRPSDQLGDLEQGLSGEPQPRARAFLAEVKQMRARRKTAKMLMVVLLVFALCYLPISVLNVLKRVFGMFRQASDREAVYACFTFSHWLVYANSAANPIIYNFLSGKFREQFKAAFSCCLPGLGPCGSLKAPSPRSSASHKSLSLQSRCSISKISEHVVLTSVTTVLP

[2] = target: T2, Orexin receptor type 2 (Homo sapiens) (UniProt O43614); experiment: (§2) Binding affinity to orexin receptor 2 (unknown origin)
T2 sequence (whole entry): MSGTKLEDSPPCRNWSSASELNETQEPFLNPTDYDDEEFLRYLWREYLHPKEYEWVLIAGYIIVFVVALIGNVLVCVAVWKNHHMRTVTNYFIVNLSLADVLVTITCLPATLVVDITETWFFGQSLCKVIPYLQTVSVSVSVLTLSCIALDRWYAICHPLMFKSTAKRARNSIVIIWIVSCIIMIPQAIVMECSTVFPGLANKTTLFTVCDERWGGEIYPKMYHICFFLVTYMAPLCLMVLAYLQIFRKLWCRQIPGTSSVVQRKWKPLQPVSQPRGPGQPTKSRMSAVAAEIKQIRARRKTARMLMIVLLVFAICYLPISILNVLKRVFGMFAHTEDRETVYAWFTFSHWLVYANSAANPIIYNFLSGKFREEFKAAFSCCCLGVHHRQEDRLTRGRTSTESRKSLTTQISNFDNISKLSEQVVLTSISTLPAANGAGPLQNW

[3] = target: T3, Orexin/Hypocretin receptor type 1 (Homo sapiens) (UniProt O43613); experiment: as §1
T3 sequence (whole entry): T1 sequence (O43613 whole entry)

Orexin receptor type 2 [4] = target: T4, Orexin receptor type 2 (Homo sapiens, UniProt O43614); experiment: as §2
T4 sequence (O43614 whole entry): T2 sequence (whole entry)

[5] = target: T1, Orexin/Hypocretin receptor type 1; experiment: Antagonist activity at human orexin receptor 1 expressed in CHO cells assessed as inhibition of orexin-A-induced calcium flux by FLIPR assay; assay type: functional, cell-based
Orexin receptor type 2 [6] = target: T4, Orexin receptor type 2; experiment: Antagonist activity at human orexin receptor 2 expressed in CHO cells assessed as inhibition of orexin-A-induced calcium flux by FLIPR assay; assay type: functional, cell-based
[7] = target: T5, 5-hydroxytryptamine receptor 2C (Homo sapiens, UniProt P28335); experiment: Binding affinity to 5HT2C receptor (unknown origin)
T5 sequence (P28335 whole entry): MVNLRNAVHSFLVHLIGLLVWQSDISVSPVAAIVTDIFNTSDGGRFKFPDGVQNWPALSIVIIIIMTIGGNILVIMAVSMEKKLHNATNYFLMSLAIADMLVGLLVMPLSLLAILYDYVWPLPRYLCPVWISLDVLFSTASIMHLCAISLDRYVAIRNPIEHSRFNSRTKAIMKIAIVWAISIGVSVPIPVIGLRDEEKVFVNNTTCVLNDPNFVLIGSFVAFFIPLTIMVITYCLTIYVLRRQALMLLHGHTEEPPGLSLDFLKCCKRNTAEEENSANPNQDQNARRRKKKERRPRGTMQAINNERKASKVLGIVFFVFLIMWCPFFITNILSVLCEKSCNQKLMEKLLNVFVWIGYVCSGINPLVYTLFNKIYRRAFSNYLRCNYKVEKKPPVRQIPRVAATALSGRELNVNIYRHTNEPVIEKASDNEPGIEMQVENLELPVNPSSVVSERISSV

Adenosine receptor A2a = Adenosine receptor A2a (Homo sapiens, UniProt P29274); experiment: Binding affinity to adenosine A2A receptor (unknown origin)
D(1A) dopamine receptor = D(1A) dopamine receptor (Homo sapiens, UniProt P21728); experiment: Binding affinity to dopamine D1 receptor (unknown origin)
[8] = target: 5-hydroxytryptamine receptor 2B (Homo sapiens, UniProt P41595); experiment: Binding affinity to 5HT2B receptor (unknown origin)
[9] = target: Kappa-type opioid receptor (Homo sapiens, UniProt P41145); experiment: Binding affinity to kappa opioid receptor (unknown origin)
Chain of Kappa-type opioid receptor (P41145 whole entry): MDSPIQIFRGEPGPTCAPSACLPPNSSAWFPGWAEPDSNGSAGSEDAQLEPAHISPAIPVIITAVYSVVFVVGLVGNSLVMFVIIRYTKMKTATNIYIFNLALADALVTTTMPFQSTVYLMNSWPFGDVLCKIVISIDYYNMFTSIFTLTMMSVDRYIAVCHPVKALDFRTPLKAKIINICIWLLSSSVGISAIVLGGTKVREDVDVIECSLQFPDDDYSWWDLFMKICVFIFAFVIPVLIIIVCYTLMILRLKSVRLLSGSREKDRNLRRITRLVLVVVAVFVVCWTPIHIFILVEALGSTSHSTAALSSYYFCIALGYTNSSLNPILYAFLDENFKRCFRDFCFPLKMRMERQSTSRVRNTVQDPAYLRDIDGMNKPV

Chain of D(1A) dopamine receptor (P21728 whole entry): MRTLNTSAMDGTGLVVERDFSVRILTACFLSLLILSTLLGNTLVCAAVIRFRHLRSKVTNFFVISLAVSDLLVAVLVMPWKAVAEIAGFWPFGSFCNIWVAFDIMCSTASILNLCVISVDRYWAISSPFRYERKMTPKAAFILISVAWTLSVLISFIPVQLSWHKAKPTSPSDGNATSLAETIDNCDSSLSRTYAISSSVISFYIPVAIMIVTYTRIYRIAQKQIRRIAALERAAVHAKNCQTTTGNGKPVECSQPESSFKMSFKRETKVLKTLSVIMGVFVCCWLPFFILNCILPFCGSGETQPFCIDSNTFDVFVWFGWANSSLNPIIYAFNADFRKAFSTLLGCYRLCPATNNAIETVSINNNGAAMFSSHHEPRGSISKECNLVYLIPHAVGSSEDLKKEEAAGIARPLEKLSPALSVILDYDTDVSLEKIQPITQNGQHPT
Chain of 5-hydroxytryptamine receptor 2B (P41595 whole entry): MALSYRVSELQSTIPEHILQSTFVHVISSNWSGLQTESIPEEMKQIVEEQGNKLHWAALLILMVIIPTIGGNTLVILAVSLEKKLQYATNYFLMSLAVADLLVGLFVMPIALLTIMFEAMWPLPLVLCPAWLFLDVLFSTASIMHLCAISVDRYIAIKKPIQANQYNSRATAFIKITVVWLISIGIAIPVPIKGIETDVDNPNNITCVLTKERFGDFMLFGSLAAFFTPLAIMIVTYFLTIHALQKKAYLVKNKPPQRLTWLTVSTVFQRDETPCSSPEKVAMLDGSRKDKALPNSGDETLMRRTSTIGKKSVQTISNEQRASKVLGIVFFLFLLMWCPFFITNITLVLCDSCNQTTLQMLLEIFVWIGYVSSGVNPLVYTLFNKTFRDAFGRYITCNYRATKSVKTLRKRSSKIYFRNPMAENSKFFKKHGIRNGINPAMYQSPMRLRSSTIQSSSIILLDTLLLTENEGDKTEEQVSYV
Chain of Adenosine receptor A2a (P29274 whole entry): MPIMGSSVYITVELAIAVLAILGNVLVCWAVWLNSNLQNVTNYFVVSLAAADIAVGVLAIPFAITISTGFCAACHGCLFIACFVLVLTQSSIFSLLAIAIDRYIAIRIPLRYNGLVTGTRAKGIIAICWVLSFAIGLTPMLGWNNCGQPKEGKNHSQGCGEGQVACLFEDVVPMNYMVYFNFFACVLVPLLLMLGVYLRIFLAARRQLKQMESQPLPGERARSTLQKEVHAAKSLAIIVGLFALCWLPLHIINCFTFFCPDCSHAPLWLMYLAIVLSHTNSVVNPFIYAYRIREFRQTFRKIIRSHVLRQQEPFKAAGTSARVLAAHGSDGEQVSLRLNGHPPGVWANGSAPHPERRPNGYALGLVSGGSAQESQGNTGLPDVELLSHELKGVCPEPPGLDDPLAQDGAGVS

COc1ccc(C[C@H]2c3cc(OC)c(OC)cc3CCN2[C@@H](C(=O)NC(C)C)c2ccccc2)cc1OC
IC50 [1]: 6 nM

CCCOc1ccc(C)nc1C(=O)N1C[C@@H]2C[C@@H]2C[C@H]1CNc1ncc(C(F)(F)F)cn1
Kb [2]: 63 nM | Kb [3]: 0.3 nM

[3H]c1cccc([3H])c1-c1nnc(C[C@@H]2CCCN2C(=O)c2nc(C)sc2-c2ccccc2F)o1
Ki (Orexin receptor type 2 [4]): 129 nM | Ki [1]: 1.1 nM

Cc1c(S(=O)(=O)Cc2ccccc2)c2ccccn2c1CC(=O)N(C)Cc1ccccc1
IC50 [5]: 3780 nM | IC50 (Orexin receptor type 2 [6]): 1 nM

Cc1nc2ccc(NC(=O)Nc3ccnc4cccnc34)cc2o1
Ki [7]: 1200 nM | Ki (Adenosine receptor A2a): 670 nM

Cc1ccc(-n2nccn2)c(C(=O)N2C[C@H](COc3ncccc3C)OC[C@H]2C)c1
Ki [5]: 720 nM

Cc1ccc(-c2ncccc2C)c(C(=O)N2C[C@@H]3C[C@@H]3C[C@H]2CNc2ncc(C(F)(F)F)cn2)n1
Kb [2]: 16 nM | Kb [3]: 0.6 nM

CCN(CC)c1ccc(NC(=O)c2oc3ccccc3c2C)cc1
Ki (Orexin receptor type 2 [4]): > 10000 nM | Ki [1]: 36 nM

Cc1cccc(-c2sc(C)nc2C(=O)N2CCC2CNC(=O)c2c(N)nc3sccn23)c1 (racemic)
IC50 [5]: 10 nM | IC50 (Orexin receptor type 2 [6]): 5 nM

CN(Cc1ccccc1)C(=O)Cn1nc(S(=O)(=O)Cc2ccccc2)c2ccccc21
IC50 [5]: 998 nM | IC50 (Orexin receptor type 2 [6]): 14 nM

Cc1c(S(=O)(=O)Cc2ccccc2)c2ccccn2c1CC(=O)N(C)Cc1ccc(F)cc1
IC50 [5]: 2380 nM | IC50 (Orexin receptor type 2 [6]): 0.8 nM

Cc1cc(C)nc(NC[C@@H]2CC3(CC3)CN2C(=O)c2nc(C)sc2-c2ccccc2)n1
Kb [2]: 2.5 nM | Kb [3]: 31.6 nM

Cc1ccc(-n2nccn2)c(C(=O)N2C[C@H](COc3nccc4ccccc34)OC[C@H]2C)c1
Ki [5]: 2.2 nM

Cc1c(S(=O)(=O)Cc2ccc(F)cc2)c2ccccn2c1CC(=O)N(C)Cc1ccc(F)cc1
Ki (Orexin receptor type 2 [4]): 5.7 nM | Ki [1]: 4360 nM

CN(C)c1ccc(NC(=O)Nc2ccnc3c(F)ccc(F)c23)cc1
Ki (Orexin receptor type 2 [4]): 503 nM | Ki [1]: 8.7 nM

CC1(C)OC[C@H](NC(=O)Nc2ccc(Br)cc2Br)[C@H](c2ccccc2)O1
Ki (Orexin receptor type 2 [4]): 6 nM | Ki [1]: 1640 nM

CNC(=O)[C@@H](c1ccccc1)N1CCc2cc(OC)c(OC)cc2[C@@H]1CCc1ccc(C(F)(F)F)cc1 [ALMOREXANT]
Ki (Orexin receptor type 2 [4]): 8 nM

Cc1cccc(-c2sc(C)nc2C(=O)N2CCC2CNC(=O)c2cccc3c2OCCN3C)c1 (racemic)
IC50 [5]: 3100 nM | IC50 (Orexin receptor type 2 [6]): 13 nM

Cc1ccc(-n2nccn2)c(C(=O)N2CCC[C@@H](COc3ccccn3)[C@@H]2C)c1
Ki [1]: 1 nM

CCCOc1ccc(C)nc1C(=O)N1C[C@@H]2C[C@@H]2C[C@H]1CNc1cnc(C)c(C)n1
Kb [2]: 1.3 nM | Kb [3]: 1 nM

CCOc1ccc(C)nc1C(=O)N1C[C@@H]2C[C@@H]2C[C@H]1CNc1ncc(C)cn1
Kb [2]: 100 nM | Kb [3]: 0.8 nM

Cc1ccc(-c2ncccn2)c(C(=O)N2C[C@H](COc3ccc(F)cn3)CC[C@H]2C)c1 [FILOREXANT]
Ki (Orexin receptor type 2 [4]): 0.3 nM

Cc1nc(C(=O)N2CC3(CC3)C[C@H]2CNc2ccc(Cl)cn2)c(-c2ccccc2)s1
Kb [2]: 79.4 nM | Kb [3]: 5 nM

Cc1nc(C(=O)N2CC3(CC3)C[C@H]2CNc2ncc(Cl)cn2)c(-c2ccccc2)s1
Kb [2]: 158 nM | Kb [3]: 158 nM

CCOc1ccc(C)nc1C(=O)N1C[C@@H]2C[C@@H]2C[C@H]1CNc1ncc(C(F)(F)F)cn1
Kb [3]: 0.3 nM

Cc1ccc(NC[C@@H]2C[C@H]3C[C@H]3CN2C(=O)c2nc(C)ccc2OCC2CC2)nc1
Kb [2]: 4 nM | Kb [3]: 0.5 nM

Cc1ccc(-n2nccn2)c(C(=O)N2CCC[C@@H](COc3nccc4ccccc34)[C@@H]2C)c1
Ki [1]: 0.5 nM

CN(Cc1ccccc1)C(=O)Cn1cc(S(=O)(=O)Cc2ccccc2)c2ccccc21
IC50 [5]: 3460 nM | IC50 (Orexin receptor type 2 [6]): 35 nM

CN(Cc1ccc(F)cc1)C(=O)Cc1nc(S(=O)(=O)Cc2ccccc2)c2ccccn12
IC50 [5]: > 10000 nM | IC50 (Orexin receptor type 2 [6]): 194 nM

Cc1nc(C(=O)N2CCCC[C@H]2CNC(=O)c2cccc3occc23)c(-c2ccc(F)cc2)s1 [SB-649868]
Ki [1]: 0.3 nM

Cc1cc(NC(=O)Nc2ccc(N(C)C)cc2)c2cc(F)cc(F)c2n1
Ki (Orexin receptor type 2 [4]): 1400 nM | Ki [1]: 22 nM | Ki (D(1A) dopamine receptor): 1780 nM | Ki [8]: 320 nM

CCn1nc(C)cc1C(=O)NCC[C@H](Cc1ccccc1)N(C)C(=O)c1cc(C)ccc1-n1nccn1
Kd (Orexin receptor type 2 [4]): 7 nM | Kd [1]: 3050 nM

COc1c(F)cccc1C(=O)N1C[C@@H](C)CC[C@H]1CNc1ccc(Br)cn1 (racemic)
Kb [2]: 126 nM | Kb [3]: 1.6 nM | Ki [9]: 320 nM

Cc1cc(C)nc(N2CC[C@@H]3CN(C(=O)c4cc(F)ccc4-n4nccn4)[C@H]3C2)n1
Ki [5]: 1400 nM | Ki (Orexin receptor type 2 [6]): 18 nM

Cc1cnn(-c2ccc(C)nc2C(=O)N2C[C@@H]3C[C@@H]3C[C@H]2CNc2ncc(C(F)(F)F)cn2)c1
Kb [2]: 0.4 nM | Kb [3]: 0.6 nM

O=C(Cn1cc(S(=O)(=O)Cc2ccc(F)cc2)c2ccccc21)NCc1ccc(F)cc1
IC50 [5]: 9190 nM | IC50 (Orexin receptor type 2 [6]): 96 nM

Cc1nc(C(=O)N2CCC[C@H]2Cc2nnc(-c3ccccc3)o2)c(-c2ccccc2F)s1
Ki (Orexin receptor type 2 [4]): 129 nM | Ki [1]: 1.1 nM

CN(Cc1ccc(F)cc1)C(=O)Cn1cc(S(=O)(=O)Cc2ccc(F)cc2)c2ccccc21
IC50 [5]: 4360 nM | IC50 (Orexin receptor type 2 [6]): 5 nM
